The values below come from US12466784B2, “Analogs of pterostilbene amino acid bearing carbonates for treating a non-alcoholic fatty liver disease and nonalcoholic steatohepatitis” (APICAL MOLECULAR BIOTECH CO., LTD., priority 2020, dated 2025).

The subject of one assay is MCD diet NASH mice. Kind of assay: Serum AST and ALT of compounds treated-NASH mice (MCD diet). The following applies: MCD diet mice; for Serum ALT (U/L) / Serum AST (U/L): 100 mg/kg oral, PG/TPSG (1:1); for effect on serum concentrations of AST and ALT, in words: 100 mg/kg oral (Table 2). The assay is classed as in vivo, Male C57BL/6 mice. The procedure: (§1) Animals and experimental protocol: Male C57BL/6 mice, 4 weeks of age, were purchased from Laboratory Animal Center (Taiwan, China) were maintained under the procedures and guidelines provided by the Institutional Animal Care and Use Committee of the Health Research Institutes (Taiwan, China). They were maintained with free access to pellet food and water in stainless-steel cages at a temperature of 21±2° C. with a 12 h light/dark cycle.
(§2) Mice were randomly divided into five groups and treated as follows: (1) MCD diet+PG/TPSG (2) MCD diet+100 mg/kg all compounds. After 28 days, animals were sacrificed for the collection of blood for determination of plasma ALT and AST concentrations, and liver samples for H&E stain.
(§3) After 28 days, animals were sacrificed for the collection of blood for determination of plasma ALT and AST concentrations, and liver samples for H&E stain.

Assay [1] relates to hepatic steatosis induced by MCD diet. Kind of assay: Histological examination (H&E stain) of liver of MCD diet mice. Format: in vivo, Male C57BL/6 mice. The following applies: for effect on MCD diet-induced steatohepatitis (H&E staining), in words / Steatosis / Ballooning / Fibrosis / Inflammation / Scores: MCD diet mice; for effect on MCD diet-induced steatohepatitis (H&E staining), in words / Avg / Ballooning / Fibrosis / Inflammation / Sum / Scores: 100 mg/kg oral; for Avg: average of Scores of the group; for Avg / Ballooning / Fibrosis / Inflammation / Sum / Scores: PG/TPSG (1:1); for Steatosis / Ballooning / Fibrosis / Inflammation: score per animal; for Steatosis: 100 mg/kg oral once daily, 5 times a week, in PG/TPSG (1:1); for Sum: sum of Scores of the 4 animals of the group; for Scores: total score per animal. The method, then: as §1, §2, §3

Values joined by “and” are separate entries in the source; they are usually repeats but may differ in a detail not shown here. Identical values can stand only once.

As to `COc1cc(/C=C/c2ccc(OC(=O)NCCNC(=O)C(N)Cc3ccccc3)cc2)cc(OC)c1.Cl` (stereo not drawn) [Compound 7e, (E)-4-(3,5-dimethoxystyryl)phenyl (2-(2-amino-3-phenylpropanamido)ethyl) carbamate hydrochloride], in the assay with MCD diet NASH mice, the “Serum ALT (U/L)” value worked out at 286.75 U/L and the “Serum AST (U/L)” value is given as 477.00 U/L. In assay [1], the “effect on MCD diet-induced steatohepatitis (H&E staining), in words” value (from here on “effect … (H&E staining), in words”) is reported as “prevented MCD diet-induced steatohepatitis”; the Avg is listed as 7.75; the Steatosis is 3; the Ballooning is 2. In assay [1], this compound showed a Fibrosis of 0 and a Sum of 31. In assay [1] (hydrochloride, 100 mg/kg), the Inflammation was 3 (3×) and 2; the Scores was 8 (3×) and 7.

Regarding `COc1cc(/C=C/c2ccc(OC(=O)NCCNC(=O)C(N)C(C)C)cc2)cc(OC)c1.Cl` (stereo not drawn) [Compound 7c, (E)-4-(3,5-dimethoxystyryl)phenyl (2-(2-amino-3-methylbutanamido)ethyl) carbamate hydrochloride], in the assay with MCD diet NASH mice, the “Serum ALT (U/L)” value came to 252.13 U/L and the “Serum AST (U/L)” value is 435.25 U/L. Moreover, in assay [1], the “effect … (H&E staining), in words” value was “prevented MCD diet-induced steatohepatitis”; the Avg is 7.75; the Ballooning is 2; the Fibrosis is 0. Besides, in assay [1], the Inflammation was 3 and the Sum stood at 31. Further, in assay [1] (hydrochloride, 100 mg/kg), the Steatosis was 3 (3×) and 2; the Scores was 8 (3×) and 7.

As for `COc1cc(/C=C/c2ccc(OC(=O)OCCNC(=O)C(N)C(C)C)c(OC)c2)cc(OC)c1.Cl` (stereo not drawn) [Compound 6g, (E)-2-(2-amino-3-methylbutanamido)ethyl (4-(3,5-dimethoxystyryl)-2-methoxyphenyl) carbonate hydrochloride], in the assay with MCD diet NASH mice, the “Serum ALT (U/L)” value is 260.75 U/L and the “Serum AST (U/L)” value turned out to be 455.25 U/L. Further, in assay [1], the “effect … (H&E staining), in words” value is reported as “prevented MCD diet-induced steatohepatitis”; the Avg stood at 7.75; the Ballooning is on record as 2; the Fibrosis came to 0. In assay [1], this compound registered an Inflammation of 3 and a Sum of 31. Besides, in assay [1] (hydrochloride, 100 mg/kg), the Steatosis was 3 (3×) and 2; the Scores is 8 (3×) and 7.

With `COc1cc(/C=C/c2ccc(OC(=O)OCCNC(=O)C(N)Cc3ccccc3)cc2)cc(OC)c1.Cl` (stereo not drawn) [Compound 5j, (E)-2-(2-amino-3-phenylpropanamido)ethyl (4-(3,5-dimethoxystyryl)phenyl) carbonate hydrochloride], in the assay with MCD diet NASH mice, the “Serum ALT (U/L)” value turned out to be 299.00 U/L and the “Serum AST (U/L)” value is 598.00 U/L. In addition, in assay [1], the “effect … (H&E staining), in words” value was “prevented MCD diet-induced steatohepatitis”; the Avg worked out at 7.75; the Ballooning came to 2; the Fibrosis was 0. Besides, in assay [1], the Inflammation turned out to be 3 and the Sum came out at 31. Further, in assay [1] (hydrochloride, 100 mg/kg), the Steatosis is 3 (3×) and 2; the Scores was 8 (3×) and 7.

Turning to `COc1cc(/C=C/c2ccc(OC(=O)OCCNC(=O)C(N)CC(C)C)cc2)cc(OC)c1.Cl` (stereo not drawn) [Compound 5d, (E)-2-(2-amino-4-methylpentanamido)ethyl (4-(3,5-dimethoxystyryl)phenyl) carbonate hydrochloride], in the assay on MCD diet NASH mice, the “effect on serum concentrations of AST and ALT, in words” value (“effect on serum concentrations” for short) is “significantly inhibited the serum concentrations of AST and ALT”; the “Serum ALT (U/L)” value turned out to be 196.13 U/L; the “Serum AST (U/L)” value turned out to be 392.25 U/L. Further, in assay [1], the “effect … (H&E staining), in words” value is “prevented MCD diet-induced steatohepatitis”; the Avg is recorded as 7.75; the Ballooning worked out at 2; the Fibrosis was found to be 0. In assay [1], this compound displayed an Inflammation of 3 and a Sum of 31. For the same compound, in assay [1] (hydrochloride, 100 mg/kg), the Steatosis is 3 (3×) and 2; the Scores is 8 (3×) and 7.

Consider `CCC(C)C(N)C(=O)NCCOC(=O)Oc1ccc(/C=C/c2cc(OC)cc(OC)c2)cc1.Cl` (stereo not drawn) [Compound 5e, (E)-2-(2-amino-3-methylpentanamido)ethyl (4-(3,5-dimethoxystyryl)phenyl) carbonate hydrochloride], for which, in the assay with MCD diet NASH mice, the “Serum ALT (U/L)” value was 209.62 U/L and the “Serum AST (U/L)” value is recorded as 419.25 U/L. In assay [1], the “effect … (H&E staining), in words” value is “prevented MCD diet-induced steatohepatitis”; the Avg is listed as 7.75; the Steatosis worked out at 3; the Ballooning was 2. In assay [1], this compound displayed a Fibrosis of 0 and a Sum of 31. In assay [1] (hydrochloride, 100 mg/kg), the Inflammation is 3 (3×) and 2; the Scores is 8 (3×) and 7.

For `COc1cc(/C=C/c2ccc(OC(=O)OCCNC(=O)C(N)CCSC)cc2)cc(OC)c1.Cl` (stereo not drawn) [Compound 5f, (E)-2-(2-amino-4-(methylthio)butanamido)ethyl (4-(3,5-dimethoxystyryl)phenyl) carbonate hydrochloride], in the assay on MCD diet NASH mice, the “effect on serum concentrations” value was “significantly inhibited the serum concentrations of AST and ALT”; the “Serum ALT (U/L)” value came to 153.00 U/L; the “Serum AST (U/L)” value stood at 241.75 U/L. For the same compound, in assay [1], the “effect … (H&E staining), in words” value is given as “prevented MCD diet-induced steatohepatitis”; the Avg turned out to be 6.25; the Steatosis is 2; the Fibrosis turned out to be 0. Moreover, in assay [1], the Sum is given as 25 and the Scores was found to be 5. In assay [1] (hydrochloride, 100 mg/kg), the Ballooning was 1 (3×) and 2; the Inflammation was 2 (3×) and 1.

In the case of `COc1cc(/C=C/c2ccc(OC(=O)OCCNC(=O)C3CCCN3)cc2)cc(OC)c1.Cl` (stereo not drawn) [Compound 5t, (E)-4-(3,5-dimethoxystyryl)phenyl (2-(pyrrolidine-2-carboxamido)ethyl) carbonate hydrochloride], in the assay with MCD diet NASH mice, the “Serum ALT (U/L)” value came to 263.00 U/L and the “Serum AST (U/L)” value came out at 370.25 U/L. Moreover, in assay [1], the “effect … (H&E staining), in words” value was “prevented MCD diet-induced steatohepatitis”; the Avg came to 7.75; the Ballooning worked out at 2; the Fibrosis was 0. In assay [1], this compound yielded an Inflammation of 3 and a Sum of 31. In assay [1] (hydrochloride, 100 mg/kg), the Steatosis is 3 (3×) and 2; the Scores was 8 (3×) and 7.

Consider `COc1cc(/C=C/c2ccc(OC(=O)OCCNC(=O)C(C)N)cc2)cc(OC)c1.Cl` (stereo not drawn) [Compound 5b, (E)-2-(2-aminopropanamido)ethyl (4-(3,5-dimethoxystyryl)phenyl) carbonate hydrochloride], for which, in the assay on MCD diet NASH mice, the “effect on serum concentrations” value was “significantly inhibited the serum concentrations of AST and ALT”; the “Serum ALT (U/L)” value stood at 180.88 U/L; the “Serum AST (U/L)” value worked out at 235.25 U/L. In assay [1], the “effect … (H&E staining), in words” value is on record as “prevented MCD diet-induced steatohepatitis”; the Avg is reported as 4.5; the Fibrosis turned out to be 0; the Sum was 19. Further, in assay [1] (hydrochloride, 100 mg/kg), the Steatosis was 2 (3×) and 3; the Ballooning was 1 (3×) and 2; the Inflammation was 2 and 1 (3×); the Scores is 5 and 4 (2×) and 6.

Take `COc1cc(/C=C/c2ccc(OC(=O)OCCNC(=O)C(N)CC(N)=O)cc2)cc(OC)c1.Cl` (stereo not drawn) [Compound 5p, (E)-2-(2,4-diamino-4-oxobutanamido)ethyl (4-(3,5-dimethoxystyryl)phenyl) carbonate hydrochloride]: in the assay with MCD diet NASH mice, the “effect on serum concentrations” value is “significantly inhibited the serum concentrations of AST and ALT”; the “Serum ALT (U/L)” value came to 288.50 U/L; the “Serum AST (U/L)” value amounted to 327.00 U/L. Also, in assay [1], the “effect … (H&E staining), in words” value is reported as “prevented MCD diet-induced steatohepatitis”; the Avg amounted to 7.75; the Ballooning is 2; the Fibrosis stood at 0. In assay [1], this compound yielded an Inflammation of 3 and a Sum of 31. For the same compound, in assay [1] (hydrochloride, 100 mg/kg), the Steatosis was 3 (3×) and 2; the Scores is 8 (3×) and 7.

As for `COc1cc(/C=C/c2ccc(OC(=O)OCCNC(=O)C(N)C(C)O)cc2)cc(OC)c1.Cl` (stereo not drawn) [Compound 5h, (E)-2-(2-amino-3-hydroxybutanamido)ethyl (4-(3,5-dimethoxystyryl)phenyl) carbonate hydrochloride], in the assay with MCD diet NASH mice, the “effect on serum concentrations” value is “significantly inhibited the serum concentrations of AST and ALT”; the “Serum ALT (U/L)” value is recorded as 150.75 U/L; the “Serum AST (U/L)” value came to 301.50 U/L. In assay [1], the Avg turned out to be 8, the Steatosis is listed as 3, the Ballooning is given as 2 and the Fibrosis was found to be 0. In assay [1], this compound had an Inflammation of 3, a Sum of 32 and a Scores of 8.
